Laboratory results as given in ChEMBL document CHEMBL1201862, “PubChem BioAssay data set” (2004).
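Dose response: 5 concentrations. Exposure: 48 h. Format: 96-well plates. Endpoint: linear interpolation; highest concentration if not reached. Abbreviation: GI50, concentration required for 50% inhibition of growth.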 Calls of active or inactive are those of the source. No stated cut-off is given here; in the data, active = GI50 up to about 1.1 µM and inactive = higher.

Columns and labels:
Experiment in all cases: growth of human tumour cells (NCI), 48 h
SK-MEL-2 = test system: SK-MEL-2
UACC-62 = test system: UACC-62
SK-MEL-5 = test system: SK-MEL-5
SR = test system: SR
HL-60 = test system: HL-60
HOP-62 = test system: HOP-62
HOP-92 = test system: HOP-92
CAKI-1 = test system: CAKI-1
HT-29 = test system: HT-29
NCI-H226 = test system: NCI-H226
DU-145 = test system: DU-145
K562 = test system: K562
SK-MEL-28 = test system: SK-MEL-28
T47D = test system: T47D
MCF7 = test system: MCF7
ACHN = test system: ACHN
NCI-H522 = test system: NCI-H522
NCI-H460 = test system: NCI-H460
SF-295 = test system: SF-295
LOX IMVI = test system: LOX IMVI
BT-549 = test system: BT-549
MDA-MB-435 = test system: MDA-MB-435
SF-539 = test system: SF-539
PC-3 = test system: PC-3
OVCAR-8 = test system: OVCAR-8
NCI-H23 = test system: NCI-H23
TK-10 = test system: TK-10
MOLT-4 = test system: MOLT-4
786-0 = test system: 786-0
U-251 = test system: U-251
KM12 = test system: KM12
RXF 393 = test system: RXF 393
UO-31 = test system: UO-31
SN12C = test system: SN12C
OVCAR-3 = test system: OVCAR-3
OVCAR-5 = test system: OVCAR-5
A498 = test system: A498
SK-OV-3 = test system: SK-OV-3
A549 = test system: A549
COLO 205 = test system: COLO 205
MDA-MB-231 = test system: MDA-MB-231
SNB-19 = test system: SNB-19
SW-620 = test system: SW-620
OVCAR-4 = test system: OVCAR-4
HCT-15 = test system: HCT-15
UACC-257 = test system: UACC-257
SF-268 = test system: SF-268
M14 = test system: M14
Malme-3M = test system: Malme-3M
IGROV-1 = test system: IGROV-1
HCT-116 = test system: HCT-116
Hs-578T = test system: Hs-578T
SNB-75 = test system: SNB-75
NCI/ADR-RES = test system: NCI/ADR-RES
RPMI-8226 = test system: RPMI-8226
HCC 2998 = test system: HCC 2998
MDA-N = test system: MDA-N
CCRF-CEM = test system: CCRF-CEM
EKVX = test system: EKVX

## CC(=O)OCC1OC(n2nc(Cc3ccccc3)c(=S)[nH]c2=S)C(OC(C)=O)C(OC(C)=O)C1OC(C)=O (stereo unspecified)
SK-MEL-2
  GI50: 17.7 µM (inactive)
UACC-62
  GI50: 18.5 µM (inactive)
SK-MEL-5
  GI50: 82 µM (inactive)
SR
  GI50: 31.2 µM (inactive)
HL-60
  GI50: 0.583 µM (active)
HOP-62
  GI50: 22 µM (inactive)
HOP-92
  GI50: 20.4 µM (inactive)
CAKI-1
  GI50: 30.7 µM (inactive)
HT-29
  GI50: 41.8 µM (inactive)
NCI-H226
  GI50: 54.1 µM (inactive)
DU-145
  GI50: 25.4 µM (inactive)
K562
  GI50: 26.9 µM (inactive)
SK-MEL-28
  GI50: 42.8 µM (inactive)
T47D
  GI50: 24.3 µM (inactive)
MCF7
  GI50: 27.7 µM (inactive)
ACHN
  GI50: > 100 µM (inactive)
NCI-H522
  GI50: 21.4 µM (inactive)
NCI-H460
  GI50: 69 µM (inactive)
SF-295
  GI50: 43.2 µM (inactive)
LOX IMVI
  GI50: 20.6 µM (inactive)
BT-549
  GI50: 19.6 µM (inactive)
MDA-MB-435
  GI50: 18.1 µM (inactive)
SF-539
  GI50: 24.9 µM (inactive)
PC-3
  GI50: 41.1 µM (inactive)
OVCAR-8
  GI50: 23.6 µM (inactive)
NCI-H23
  GI50: 20.3 µM (inactive)
TK-10
  GI50: 57.8 µM (inactive)
MOLT-4
  GI50: 23.2 µM (inactive)
786-0
  GI50: 35.2 µM (inactive)
U-251
  GI50: 22.1 µM (inactive)
KM12
  GI50: 20.5 µM (inactive)
RXF 393
  GI50: 22.9 µM (inactive)
UO-31
  GI50: 4.9 µM (inactive)
SN12C
  GI50: 21.5 µM (inactive)
OVCAR-3
  GI50: 18.7 µM (inactive)
OVCAR-5
  GI50: > 100 µM (inactive)
A498
  GI50: 32.1 µM (inactive)
SK-OV-3
  GI50: 50.7 µM (inactive)
A549
  GI50: 84.1 µM (inactive)
COLO 205
  GI50: 89.7 µM (inactive)
MDA-MB-231
  GI50: 14.7 µM (inactive)
SNB-19
  GI50: 27.7 µM (inactive)
SW-620
  GI50: 30 µM (inactive)
OVCAR-4
  GI50: 21.3 µM (inactive)
HCT-15
  GI50: 19.4 µM
UACC-257
  GI50: 18.7 µM (inactive)
SF-268
  GI50: 21.6 µM (inactive)
M14
  GI50: 19.4 µM (inactive)
Malme-3M
  GI50: 31.6 µM (inactive)
IGROV-1
  GI50: 25 µM (inactive)
HCT-116
  GI50: 21.3 µM (inactive)
Hs-578T
  GI50: 20.2 µM (inactive)
SNB-75
  GI50: 20.6 µM (inactive)
NCI/ADR-RES
  GI50: > 100 µM (inactive)

## C/C(=N\NC(=O)CC#N)C(CN1CCCCC1)C(c1ccccc1)c1c(O)c2ccccc2oc1=O (stereo unspecified)
SK-MEL-2
  GI50: 35.7 µM (inactive)
UACC-62
  GI50: 45.4 µM (inactive)
RPMI-8226
  GI50: 33.7 µM (inactive)
SK-MEL-5
  GI50: 51.2 µM (inactive)
HCC 2998
  GI50: 55.7 µM (inactive)
HL-60
  GI50: 27.2 µM (inactive)
HOP-92
  GI50: 18.5 µM (inactive)
CAKI-1
  GI50: 64.7 µM (inactive)
HT-29
  GI50: 46.8 µM (inactive)
NCI-H226
  GI50: 52.1 µM (inactive)
DU-145
  GI50: > 100 µM (inactive)
K562
  GI50: 55 µM (inactive)
SK-MEL-28
  GI50: > 100 µM (inactive)
MCF7
  GI50: 17.3 µM (inactive)
MDA-N
  GI50: 49.8 µM (inactive)
ACHN
  GI50: 35 µM (inactive)
NCI-H522
  GI50: 58.2 µM (inactive)
LOX IMVI
  GI50: 17.4 µM (inactive)
BT-549
  GI50: 54.2 µM (inactive)
MDA-MB-435
  GI50: 53.2 µM (inactive)
SF-539
  GI50: 52.6 µM (inactive)
PC-3
  GI50: 58.3 µM (inactive)
OVCAR-8
  GI50: 63.5 µM (inactive)
NCI-H23
  GI50: 46.2 µM (inactive)
TK-10
  GI50: 91.8 µM (inactive)
MOLT-4
  GI50: 26.5 µM (inactive)
786-0
  GI50: 78 µM (inactive)
U-251
  GI50: 58.6 µM (inactive)
KM12
  GI50: 39.5 µM (inactive)
UO-31
  GI50: 33.9 µM (inactive)
OVCAR-3
  GI50: 47.5 µM (inactive)
OVCAR-5
  GI50: > 100 µM (inactive)
A498
  GI50: 21.7 µM (inactive)
SK-OV-3
  GI50: 64 µM (inactive)
A549
  GI50: 45.7 µM (inactive)
CCRF-CEM
  GI50: 26.2 µM (inactive)
COLO 205
  GI50: 18.6 µM (inactive)
MDA-MB-231
  GI50: 35.5 µM (inactive)
SNB-19
  GI50: 80.4 µM (inactive)
SW-620
  GI50: 91.4 µM (inactive)
OVCAR-4
  GI50: 52.1 µM (inactive)
HCT-15
  GI50: 45.5 µM
UACC-257
  GI50: 37.2 µM (inactive)
SF-268
  GI50: > 100 µM (inactive)
M14
  GI50: 68.5 µM (inactive)
Malme-3M
  GI50: 41 µM (inactive)
IGROV-1
  GI50: 77.6 µM (inactive)
HCT-116
  GI50: 62.2 µM (inactive)
Hs-578T
  GI50: 50.6 µM (inactive)
SNB-75
  GI50: 67.5 µM (inactive)
NCI/ADR-RES
  GI50: 48.9 µM (inactive)
EKVX
  GI50: > 100 µM (inactive)
